{"source": "patent US20240392348A1", "about": "“METHODS AND COMPOSITIONS USEFUL FOR NUCLEIC ACID SEQUENCING” (Singular Genomics Systems, Inc., priority 2021, published 2024)", "tested_on": "polymerase", "format": "biochemical", "excerpt": "The incorporation score is a direct reflection of the incorporation half time; +++ refers to 4 to 14 seconds, ++ refers to 15 to 25 seconds, and + refers to greater than 25 seconds. The next base incorporation score reflects the incorporation half time for the next base, C refers to 20 to 100 seconds, B refers to 101 to 200 seconds, and A refers to greater than 200 seconds.", "data": [{"smiles": "O=C(O)CCCC[C@@H]1SC[C@@H]2NC(=O)N[C@@H]21", "note": "[biotin]", "values": [{"measurement": "incorporation score", "setting": "nucleobase not stated", "result": "+ (+ refers to greater than 25 seconds)"}, {"measurement": "incorporation halftime", "setting": "same experimental conditions for biotin and rhodamine dye", "result": 28, "unit": "s"}]}]}
